The values below are quoted from earlier work in patent US20240315940A1, “Topical Nourishing/Antimicrobial Compositions” (Laboratory Skin Care, Inc., priority 2021, published 2024).

The test system of this series is bacteria, fungi, Pseudomonas aeruginosa, Pseudomonas capacia, Staphylococcus aureus, Escherichia coli, Candida albicans, Aspergillus niger, Salmonella …. As to conditions: whole genera of microorganisms.

Consider `Oc1cc(Cl)ccc1Oc1ccc(Cl)cc1Cl` [triclosan], for which the effectiveness against microorganisms entry was “effective”.
